Assay results taken from the NIST ThermoML archive (doi:10.1016/j.fluid.2006.06.017).

Columns and labels:
[1] = refractive index (Na D-line) (dimensionless); details: 298.15 K; 101.33 kPa; Liquid; Standard Abbe refractometry
[2] = Liquid; for mass density: 298.15 K, 101.33 kPa; for vapor or sublimation pressure: Ebulliometric method (Recirculating still)

CCCCO [butan-1-ol]
Details	mass density [kg/m3]	refractive index
[1]	–	1.3976
[2]	805.65	–

[2]
Details	vapor or sublimation pressure [kPa]
351.18 K	20
390.75 K	101.3

CCCOCCC [dipropyl ether]
Details	mass density [kg/m3]	refractive index
[1]	–	1.3784
[2]	741.81	–

[2]
Details	vapor or sublimation pressure [kPa]
302.6 K	10.47
306.36 K	12.43
310.41 K	14.95
313.39 K	16.91
315.97 K	18.97
317.33 K	20
318.45 K	20.97
320.69 K	22.93
323.79 K	25.95
326.58 K	28.97
329.15 K	31.95
331.52 K	34.95
333.76 K	37.95
335.79 K	40.9
337.8 K	43.95
339.62 K	46.85
341.27 K	49.7
343.07 K	52.91
345.22 K	56.95
347.19 K	60.85
349.07 K	64.87
351.36 K	69.9
353.45 K	74.84
355.48 K	79.91
357.37 K	84.8
359.21 K	89.75
360.93 K	94.65
363.16 K	101.3

CCCO [propan-1-ol]
Details	mass density [kg/m3]	refractive index
[1]	–	1.3836
[2]	799.62	–

[2]
Details	vapor or sublimation pressure [kPa]
332.63 K	20
369.75 K	101.3
